The target in the assay is Squalene monooxygenase (Sus scrofa). Briefly: Inhibition of pig liver squalene epoxidase.
Usually IC50 stands for the concentration that gives 50% inhibition. Lower therefore signals greater potency. `CC(C)=CCC/C(C)=C/CC/C(C)=C/CC/C=C(\C)CC/C=C(\C)CCCO` had a 50% inhibitory concentration (IC50) of 4 µM.

`CC(C)=CCC/C(C)=C/CC/C(C)=C/CC/C=C(\C)CC/C=C(\C)CCCCO` gave a concentration for half-maximal inhibition (IC50) of 4 µM.

Take `CC(C)=CCC/C(C)=C/CC/C(C)=C/CC/C=C(\C)CC/C=C(\C)CC/C=C(\C)CCCO`: the 50% inhibitory concentration (IC50) is over 400 µM.

The compound `CC(C)=CCC/C(C)=C/CC/C(C)=C/CCCO` showed an IC50 of over 400 µM.

For `CC(C)=CCC/C(C)=C/CC/C(C)=C/CC/C=C(\C)CCCO`, the IC50 turned out to be 100 µM.

The values are drawn from BindingDB's records for doi:10.1021/jm00168a025 (State University of New York, 1990).
